One data set concerns lymphoblasts. The conditions noted are these: serious immune disorders; FR 2 510 580 A, FR 2 597 751 A, Lin et al. 2001; cited from earlier work.
The test system of the next data set is human blood cells. Nature of the data set: human blood cells, proliferation and expression of membrane markers (Tests H). In kind it is cell-based. The conditions noted are these: for proliferation of the blood cells of the immune response: 24 or 48 hours at 37° C.
For another data set, the system named is IL-2. The experiment in a line: IL-2 content of cell supernatants after PHA or SEB stimulation (Tests H). The conditions noted are these: following stimulation with PHA or SEB; FIGS. 2 and 3.
Data set [1] in a line: side effects on topical, oral or injected administration (method not described). The conditions noted are these: administered topically, orally or by injection.
Another data set concerns leukoblasts. Nature of the data set: antiblastic effect, activity against cancers and leukemias (method not described).

Take `COc1cc(O[C@@H]2O[C@H](CO[C@@H]3OC[C@@H](O)[C@H](O)[C@H]3O)[C@@H](O)[C@H](O)[C@H]2O)c2c(=O)cc(-c3ccc(O)cc3)oc2c1` [5-O-β-D-primeverosyl-genkwanin]: the “effect on lymphoblasts formed in hyperplasia” value with lymphoblasts is “destroys the lymphoblasts formed”.

`COc1cc(OC2OC(COC3OCC(O)C(O)C3O)C(O)C(O)C2O)c2c(=O)cc(-c3ccc(O)cc3)oc2c1` [Ex. 2, 5-O-β-D-primeverosyl-genkwanin]: in the data set on human blood cells, the “antibody production for the B lymphocytes” value is listed as “decrease”, the “class II MHCs for dendritic cells” value is recorded as “decrease” and the “proliferation of the blood cells of the immune response” value was “do not induce proliferation”. Besides, the IL-2 production entry with IL-2 was “inhibition”.

Regarding `CCOc1ccc(C2CC(=O)c3c(cc(OC)cc3OC3OC(COC4OC(CO)C(O)C(O)C4O)C(O)C(O)C3O)O2)cc1` [Ex. 5, 2,3-dihydro-5-[O-6-(D-gluocpyranosyl)-β-D-glucopyranosyl]oxy-2-(4-ethoxyphenyl)-7-methoxy-4H-1-benzopyran-4-one], in the data set with human blood cells, the “antibody production for the B lymphocytes” value is given as “decrease”, the “class II MHCs for dendritic cells” value is given as “decrease” and the “proliferation of the blood cells of the immune response” value is listed as “do not induce proliferation”. Moreover, in the data set with IL-2, the IL-2 production result is reported as “inhibition”.

For the compound `CCOc1ccc(-c2cc(=O)c3c(OC4OC(COC5OC(CO)C(O)C(O)C5O)C(O)C(O)C4O)cc(OC)cc3o2)cc1` [Ex. 8, 5-[O-6-(D-glucopyranosyl)-β-D-glucopyranosyl]oxy-2-(4-ethoxyphenyl)-7-methoxy-4H-1-benzopyran-4-one], the harmful side effects result in data set [1] is on record as “virtual absence”. Also, the “activity against certain acute cancers and leukemias (antiblastic effect) and chronic myeloid leukemia” value in the data set on leukoblasts was “particularly active”.

Source of the values: US7935672B2, “Derivatives of genkwanin and sakuranetin, cosmetic and therapeutic use thereof and preparation method of same” (priority 2004, dated 2011).
